Some results are limits rather than exact numbers.

The target of series [1] is T1, Par1 (thrombin) receptor (Homo sapiens, UniProt P25116).
T1 construct: endogenous in cells; host or cells: platelets (platelet-rich plasma; washed platelets from individual donors)
T1 sequence (P25116 22-425): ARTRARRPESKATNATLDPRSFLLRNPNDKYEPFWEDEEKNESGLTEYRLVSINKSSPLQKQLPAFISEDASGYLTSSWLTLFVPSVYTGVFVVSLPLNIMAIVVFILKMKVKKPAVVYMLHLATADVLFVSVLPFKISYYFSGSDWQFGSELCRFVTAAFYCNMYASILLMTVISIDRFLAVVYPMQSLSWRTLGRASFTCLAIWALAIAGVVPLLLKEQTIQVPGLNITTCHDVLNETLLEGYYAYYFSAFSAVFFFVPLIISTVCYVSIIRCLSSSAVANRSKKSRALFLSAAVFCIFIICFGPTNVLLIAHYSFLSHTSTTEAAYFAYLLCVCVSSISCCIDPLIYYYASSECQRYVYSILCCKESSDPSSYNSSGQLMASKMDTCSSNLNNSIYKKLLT
The series is described as follows: SFLLRN-mediated granule secretion, platelet-rich plasma, luciferin-luciferase ATP readout (primary assay). Format: cell-based. As to conditions: Table D; read-out: Activity (measured IC50 category). How it is done:
The compounds were tested in two independent IC50 determination experiments using the primary assay measuring SFLLRN-mediated granule secretion. For this assay, platelet-rich plasma is treated with putative inhibitors prior to activation by the SFLLRN peptide, which targets the Par1 (thrombin) receptor. Upon activation, platelets secrete dense granules, which are concentrated with ATP. Platelet activation and possible inhibition are monitored by a luciferin-luciferase assay (CellTiter-Glo without lysis reagent) to measure the ATP secreted from activated platelets. Luminescence measurements are made using a plate reader (Envision, PerkinElmer) capable of detecting luminescence.

Series [2] deals with thrombus formation. The series is described as follows: Thrombus formation following laser-induced injury of the cremaster arteriole in mice. Format: in vivo. As to conditions: single infusion of 5 mg/kg. The text has this: PAR1 is the thrombin receptor on human platelets and serves an important function in mediating thrombus formation. We tested compound 1 to determine whether it inhibited thrombus formation following laser-induced injury of the cremaster arteriole in mice. The dominant PAR receptor on mouse platelets is PAR4. However, since compound 1 acts at a non-orthosteric site and mouse PAR4 differs from human PAR4, we reasoned that compound 1 may be able to block mouse PAR4. […] When infused into mice at a concentration of 5 mg/kg, compound 1 inhibited platelet accumulation during thrombus formation by >90% (FIG. 4B). Infusion of 5 mg/kg also impaired fibrin generation during thrombus formation (FIG. 4C). Thus, compound 1 blocks both cellular- and coagulation protein-mediated arms of thrombus formation. […] The compound was therefore infused every 30 minutes during the course of these experiments. The short half-life of compound 1 in vivo may be useful in scenarios in which anticoagulation is only required for a short period of time or when anticoagulation needs to be reversed quickly, such as anticoagulation prior to invasive procedures or surgery.
(§1) Since there are also situations in which longer term anticoagulation is desired, we performed further studies in the thrombus formation model to assess analogs of compound 1 that may have a more long-lived effect. […] This instability in mouse plasma may have contributed to its short half-life of efficacy in vivo.

Series [3] is described as follows: Stability in mouse plasma. Format: in vitro ADME.
Source text: as §1

In series [4] the test system is Gα12 signaling downstream of PAR1. The series is described as follows: PAR1-mediated transmembrane resistance (TER) in MDCK cells overexpressing Gα12. As to conditions: FIG. 3B. Format: cell-based. From the text:
(§2) This pattern of inhibition is consistent with that of an allosteric inhibitor. […] This observation raised the possibility that compound 1 blocks PAR1 signaling through Gαq (which mediates platelet aggregation downstream of PAR1), but not Gα12/13 (which mediates shape change downstream of PAR1). A previously identified PAR1 inhibitor, 3,5-difluoro aminoisoxazole (3,5-DFAI), inhibited both shape change and aggregation. Shape change that occurred in the presence of compound 1 was blocked by the Rho kinase inhibitor Y27632, confirming participation of Rho kinase downstream of Gα12/13 in compound-1-resistance shape change (FIG. 3A). […] PAR1-mediated decrease in TER in these cells is dependent on Gα12. […] In contrast, 3,5-DFAI inhibited SFLLRN-mediated decrease in TER (FIG. 3B) and compound 1 inhibited Gαq-mediated Ca^2+ flux in these MDCK cells (FIG. 3C).

Series [5] deals with T2, PAR1 (Homo sapiens, UniProt P25116).
T2 sequence (P25116 22-425): T1 sequence (P25116 22-425)
In words: PAR1-mediated platelet aggregation and shape change. Format: cell-based. More on the design: endogenous in cells; host or cells: platelets (platelet-rich plasma; washed platelets from individual donors). Conditions: FIG. 3A.
Source text: as §2

Regarding `CCC(=O)Nc1cccc(NC(=O)c2ccccc2Br)c1`, the IC50 (commonly the point on the concentration scale where inhibition reaches its midpoint) in series [1] is 1 to 5 µM.
As for `O=C(Nc1ccccc1)c1ccccc1Br`, the IC50 in series [1] fell in the range of 1 to 5 µM.
Same read-out and setting: with `CC(=O)Nc1cccc(NC(=O)c2ccccc2Cl)c1` the figure was greater than 10 µM; with `CC(=O)Nc1ccc(NC(=O)c2ccccc2Br)cc1`, greater than 10 µM.
The same measure, in the same setting: the value for `CCCC(=O)Nc1cccc(NC(=O)c2ccc(C(F)(F)F)cc2)c1` was greater than 10 µM; that for `CCCC(=O)Nc1cccc(NC(=O)c2ccc(OC)cc2)c1` was greater than 10 µM; that for `CCCC(=O)Nc1cccc(NC(=O)c2ccc(S(C)(=O)=O)cc2)c1` was greater than 10 µM.
For `CCCC(=O)Nc1cccc(NC(=O)c2ccccc2C)c1`, the IC50 in series [1] lay within 0.001 to 1 µM.
On the same count and under the same terms, the value for `CCCC(=O)Nc1cccc(NC(=O)c2ccccc2F)c1` was 0.001 to 1 µM; that for `CCCC(=O)Nc1cccc(NC(=O)c2ccccc2Cl)c1` was 1 to 5 µM; that for `CCCC(=O)Nc1cccc(NC(=O)c2cccnc2)c1` was greater than 10 µM.
Consider `CCCC(=O)Nc1cccc(NC(=O)c2cnc3ccccc3c2)c1`, for which the IC50 in series [1] is greater than 10 µM.
Still for that read-out and setting: with `CCCC(=O)Nc1cccc(NC(=O)c2ccco2)c1` the figure was greater than 10 µM; with `CCCC(=O)Nc1cccc(NC(=O)c2ccc(C)cc2)c1`, greater than 10 µM; with `CCCC(=O)Nc1cccc(NC(=O)c2cccc(S(C)(=O)=O)c2)c1`, greater than 10 µM.
The same measure, in the same setting: the value for `O=C(Nc1cccc(NC(=O)C2CCCC2)c1)c1ccccc1Br` was 0.001 to 1 µM.
`O=C(Nc1cccc(NC(=O)c2ccccc2Br)c1)c1ccccc1`: the half-maximal inhibitory concentration (IC50) in series [1] was greater than 10 µM.
Same read-out and setting: the value for `CCCC(=O)Nc1ccnc(NC(=O)c2ccccc2Br)c1` was greater than 10 µM; that for `O=C(Nc1cc(NC(=O)C2CCCC2)ccn1)c1ccccc1Br` was greater than 10 µM.
Same read-out and setting: with `O=C(Nc1ccnc(NC(=O)c2ccccc2Br)c1)c1ccccc1` the figure was greater than 10 µM; with `CCCC(=O)Nc1cccc(N(C)C(=O)c2ccccc2Br)c1`, greater than 10 µM; with `CN(C(=O)c1ccccc1Br)c1cccc(NC(=O)C2CCCC2)c1`, greater than 10 µM.
On to `CCCC(=O)Nc1ccc(NC(=O)c2ccccc2Br)cc1`, for which the half-inhibitory concentration (IC50) in series [1] was greater than 10 µM.
The same measure, in the same setting: the value for `CCCC(=O)Nc1cccc(NC(=O)c2ccccc2C(F)(F)F)c1` was 1 to 5 µM.
The same measure, in the same setting: the value for `CCCC(=O)Nc1cccc(NC(=O)c2ccccc2OC(F)(F)F)c1` was 0.001 to 1 µM.
On the same count and under the same terms, with `CCCC(=O)Nc1cccc(NC(=O)c2ccccc2C(=O)N(C)C)c1` the figure was greater than 10 µM; with `CCCC(=O)Nc1cccc(NC(=O)c2ccccc2-c2ccccc2)c1`, greater than 10 µM; with `CCCC(=O)Nc1cccc(NC(=O)c2ccccc2CC)c1`, 0.001 to 1 µM.
`CCCC(=O)Nc1cccc(NC(=O)c2c(C)cccc2C)c1`: the half-maximal inhibitory concentration (IC50) in series [1] was in the range of 1 to 5 µM.
Turning to `CCCC(=O)N(C)c1cccc(NC(=O)c2ccccc2Br)c1`, in series [1], the IC50 is greater than 10 µM.
Same read-out and setting: the value for `CCOC(=O)Nc1cccc(NC(=O)c2ccccc2Br)c1` was 1 to 5 µM.
Still for that read-out and setting: with `Cc1ccccc1C(=O)Nc1cccc(NC(=O)CC(C)C)c1` the figure was 1 to 5 µM.
For the compound `CCCC(=O)Nc1ccc(Cl)c(NC(=O)c2ccccc2C)c1`, in series [1], the IC50 was greater than 10 µM.
Still for that read-out and setting: the value for `CCCC(=O)Nc1ccc(Cl)c(NC(=O)c2ccccc2Br)c1` was greater than 10 µM; that for `CCC(=O)Nc1cc(NC(=O)c2ccccc2C)ccc1C` was greater than 10 µM; that for `CCCNC(=O)c1cccc(NC(=O)c2ccccc2Cl)c1` was 1 to 5 µM.
The same measure, in the same setting: the value for `CCCCNc1cccc(NC(=O)c2ccccc2Br)c1` was 0.001 to 1 µM; that for `CCCC(=O)Nc1cccc(NCc2ccccc2Br)c1` was greater than 10 µM.
The same measure, in the same setting: the value for `CCCC(=O)Nc1cccc(NC(=O)c2ccccc2S(C)(=O)=O)c1` was greater than 10 µM; that for `CCCC(=O)Nc1cccc(NC(=O)c2cc(C)ccc2Br)c1` was 0.001 to 1 µM.
Consider `CCCC(=O)Nc1cccc(NC(=O)c2ccc(F)cc2Br)c1`, for which the 50% inhibitory concentration (IC50) in series [1] lay in the range of 0.001 to 1 µM.
On to `CCCC(=O)Nc1cccc(NC(=O)c2cc(F)ccc2Br)c1`, for which, in series [1], the concentration for half-maximal inhibition (IC50) is 0.001 to 1 µM.
On the same count and under the same terms, the value for `CCCC(=O)Nc1cccc(NC(=O)c2cc(Cl)ccc2Br)c1` was 0.001 to 1 µM.
Same read-out and setting: the value for `CCC(C)(C)C(=O)Nc1cccc(NC(=O)c2ccccc2Br)c1` was greater than 10 µM; that for `CCCC(=O)Nc1cccc(NC(=O)c2cccc(Cl)c2Cl)c1` was 1 to 5 µM.
On the same count and under the same terms, the value for `CCCC(=O)Nc1cccc(NC(=O)c2c(Cl)cccc2Br)c1` was 1 to 5 µM.
`CC(C)CC(=O)Nc1cccc(NC(=O)c2ccccc2Br)c1` [2-bromo-N-(3-(3-methylbutanamido)phenyl)benzamide]: the “impairment of platelet accumulation during thrombus formation” value in series [2] (FIG. 5A) was greater than 90%. The “impairment of fibrin generation during thrombus formation” value in series [2] (FIG. 5B) is greater than 90%. Besides, the “remaining after 5 hour incubation in mouse plasma” value in series [3] is recorded as 64.6%.
For the compound `Nc1c(F)noc1F` [3,5-DFAI, 3,5-difluoro aminoisoxazole], the “PAR1-mediated (SFLLRN) change in TER” value in series [4] is given as “inhibited”. Moreover, in series [5], the PAR1-mediated platelet aggregation result is listed as “inhibited” and the “PAR1-mediated platelet shape change” value is reported as “inhibited”.
Consider `C[C@@H](N)[C@H]1CC[C@H](C(=O)Nc2ccncc2)CC1` [Compound Y27632], for which the “shape change that occurred in the presence of compound 1” value in series [5] (in the presence of compound 1) was “blocked”.
With `CCCC(=O)Nc1cccc(NC(=O)c2ccccc2Br)c1` [drawing 135], in series [1], the concentration for half-maximal inhibition (IC50) is 0.001 to 1 µM.
On the same count and under the same terms, the value for `CC(C)CC(=O)Nc1cccc(NC(=O)c2ccccc2Br)c1` [drawing 174] was 0.001 to 1 µM.
